Type in all cases: cell-based, human
The test system of experiment [1] is TIL586. Description: GM-CSF release by TIL586 co-incubated with peptide-pulsed target cells. Also on record: GM-CSF release: unit not given here. The conditions noted are these: for GM-CSF release: 586EBV cells pulsed with peptide 1 μg/ml for 90 min, co-incubated with TIL586, TIL586 alone subtracted; for Recognition by TIL586 / stimulation of GM-CSF release (in words): peptide pulsed onto 586EBV B cells (A31+). The protocol: Transfection and cytokine assays were performed as FIG. 1A and b. 586mel and 397mel were included as positive and negative controls for the reactivity of TIL586. The ORF3P peptide was incubated with 586EBV (A31+) and T2 (non-A31) cells at a concentration of 1 μg/ml for 90 min.
The following chemicals and reagents were purchased from the sources indicated: RPMI 1640, AIM-V media, Lipofectamine, G418 (GIBCO BRL, Gaithersberg, Md.); the eukaryotic expression vector pCR3 (Invitrogen, San Diego, […] containing 120 IU/ml of IL-2. TIL586 was added and incubated for additional 18–24 h, 100 μl of supernatant was collected for GM-CSF assay.

The subject of experiment [2] is TIL586. Description: Cytotoxic lysis of peptide-pulsed target cells by TIL586, 4-h chromium release assay. The conditions noted are these: for % Specific lysis (E:T 20:1): 586EBV cells pulsed with peptide 1 μg/ml, TIL586 E:T 20:1, 4-h chromium release; for Sensitization of peptide-pulsed 586EBV B cells for lysis by TIL586 (in words): peptide pulsed onto 586EBV B cells. The protocol: 586EBV B cells were incubated with ORF3P (pep) (—▴—), with an irrelevant peptide (ipep) (—●—) without peptide (—Δ—) and T2 cells pulsed with ORF3P (—∘—) as marked. After incubation, TIL586 was added and mixed with the target cells. Cytolytic activity of TIL586 was measured in a 4 h chromium release assay.
586EBV cells were separately incubated with serial dilutions of ORF3P (pep) (—▴—) or irrelevant peptides (ipep) (—●—) and T2 cells with the ORF3P (peptide (—∘—) for 90 min. The cytolytic activity of TIL586 was evaluated in a 4h […] release assay at an effector: target (E:T) ratio of 40:1.
(§1) Cytolytic assays was done as previously described (Kawakami, Y et al., 1994, Proc. Natl. Acad. Sci. USA 91:6458–62). Briefly, the target cells were labeled with chromium for 90 min. After washing three times, the cells were incubated with peptides at a concentration of 1 μg/ml for 90 min. The cells were washed again, counted, and then mixed with TIL586 at the indicated ratio of effector : targets (E:T). Chromium release was measured after 4 h incubation. The peptides were synthesized by a solid-phase method using a peptide synthesizer (Model AMS 422, Gibson Co., Inc., Worthington, Ohio). Some peptides were purified by HPLC and had greater than 98% in purity. For titration of the ORF3P peptide recognized by TIL586, 586EBV B cells were incubated with various concentrations of the purified ORF3P peptide. Percentage of specific lysis was determined from the equation (A-B)/(C-B)×100 where A is lysis of 586EBV B cells by TIL586 in the presence of a peptide, B is spontaneous release from 586EBV B cells in presence of the same peptide but in the absence of effector cells, and C is the maximum chromium release.

Experiment [3] relates to TIL586. Description: GM-CSF release by TIL586 co-incubated with peptide-pulsed target cells.
Experiment [4] relates to TIL586. Description: Cold target inhibition of lysis of 51Cr-labeled 586mel by TIL586. The note with it: TIL586, E:T 20:1, 4 h. The protocol: 586EBV cells pulsed with ORF3P (—▴—), with irrelevant peptide (—Δ—) and T2 cells loaded with ORF3P (—□—) were used as “cold” target cells. After washing, “hot” and “cold” target cells were counted again and mixed at the “cold”/“hot” ratio of 1:1, 5:1, 10:1, and 20:1. TIL586 was added at an effector; “hot” target (E:T) ratio of 20:1. Chromium release was measured after 4 h incubation.
as §1, with “For titration of the ORF3P peptide recognized by TIL586, 586EBV B cells were incubated with various concentrations of the purified ORF3P peptide.” left out, “release. […]” for “release.”

Another experiment deals with TIL1200. In words: Cold target inhibition of lysis of 51Cr-labeled 624mel by TIL1200. The conditions noted are these: TIL1200 (gp100, HLA-A2), E:T 30:1, 4 h. The protocol: “Cold” and “hot” target cells were mixed at the indicated ratios. TIL1200 was added at an effector: hot target (E:T) ratio of 30:1. Cytolytic activity of TIL1200 was evaluated in a 4-h ^51Cr release assay.
as §1, with “release. […]” for “release.”

Experiment [5] concerns T cell clones from TIL586. Description: GM-CSF release by T cell clones generated from the TIL586 cell line. The note with it: six T cell clones, GM-CSF assay, 18–24 h. The protocol: FIGS. 6A–6D show recognition of the antigenic peptide T cell clones from the TIL586 cell line. T cell clones were generated from the TIL586 cell line. 586EBV B cells were pulsed with the ORF3P peptide or irrelevant peptide. T cell clone or TIL586 cells were added and coincubated. For 586 mel, 397 mel/A31^+ tumors and melanocyte NHEM680 cells, 1×10^5 cells per well were incubated with 1×10^5 cells clones, TIL586-C1 (FIG. 6A), TIL586-C4 (FIG. 6B) and TIL586-C6 (FIG. 6C) or TIL586 (FIG. 6D) for 18–24 h, respectively. GM-CSF assay was performed as described in FIG. 1B.
To address the question of whether TIL586 recognized a naturally processed peptide which is similar or identical to the ORF3P peptide on the tumor cells, the ability of the ORF3P peptide pulsed 586EBV B cells to inhibit lysis of ^51Cr-labeled 586mel in a cold-target inhibition assay was examined. […] To further test if T cell clones can recognize both the ORF3P peptide pulsed 586EBV B cells and tumor cell lines, T cell clones were generated from the TIL586 cell line by limiting dilution (1 cell/well in 96-well round bottom microplate) and further expanded in culture. […] T cell clones were further expanded in AIM-V medium containing 6000 IU/ml IL-2. […]

Setting [6] is: 586EBV cells, TIL586 E:T 40:1, 4 h.

Entries after “also recorded” stand apart in the source; their conditions may differ.

“AACDQRVLIVR (listed as Homo sapiens) [synthetic peptide from ORF1 (gp75)]”: in the experiment with TIL586 [1], the GM-CSF release was found to be 250 and the “Recognition by TIL586 / stimulation of GM-CSF release (in words)” value (“Recognition by TIL586 / stimulation” below) is recorded as “very weakly induced GM-CSF release”. For the same sequence, the “Sensitization of target cells for lysis by TIL586 at high peptide concentration” value in the experiment with TIL586 [2] (10 μg/ml of peptide, data not shown) is recorded as “did not sensitize the target cells for lysis”. In the experiment with TIL586 [2], the “% Specific lysis (E:T 20:1)” value was less than 10% and the “Sensitization of peptide-pulsed 586EBV B cells for lysis by TIL586 (in words)” value is reported as “failed to sensitive peptide-loaded 586EBV B for lysis by TIL586”. For the same sequence, in the experiment with TIL586 [3] (incubated with 586EBV B cells), the “Peptide concentration needed for weak stimulation of cytokine release from TIL586” value is more than 1 µg/mL.

Take “ACDQRVLIVR (listed as Homo sapiens) [synthetic peptide from ORF1 (gp75)]”: the GM-CSF release in the experiment with TIL586 [1] was less than 50. In addition, the “% Specific lysis (E:T 20:1)” value in the experiment with TIL586 [2] is listed as less than 10%.

Take “ACDQRVLIVRR (listed as Homo sapiens) [synthetic peptide from ORF1 (gp75)]”: the GM-CSF release in the experiment on TIL586 [1] was less than 50. Moreover, the “% Specific lysis (E:T 20:1)” value with TIL586 [2] was less than 10%.

Consider “AISQDTTVGR (listed as Homo sapiens) [synthetic peptide from ORF1 (gp75)]”, for which the GM-CSF release in the experiment with TIL586 [1] is less than 50. For the same sequence, in the experiment on TIL586 [2], the “% Specific lysis (E:T 20:1)” value is less than 10%.

In the case of “CGTCRPGWR (listed as Homo sapiens) [synthetic peptide from ORF1 (gp75)]”, the GM-CSF release in the experiment with TIL586 [1] is less than 50. The “% Specific lysis (E:T 20:1)” value in the experiment on TIL586 [2] is less than 10%.

“DDREVWPLR (listed as Homo sapiens) [synthetic peptide from ORF1 (gp75)]”: in the experiment with TIL586 [1], the GM-CSF release is less than 50. Besides, the “% Specific lysis (E:T 20:1)” value in the experiment with TIL586 [2] is recorded as less than 10%.

Take “DQRVLIVRR (listed as Homo sapiens) [synthetic peptide from ORF1 (gp75)]”: the GM-CSF release in the experiment on TIL586 [1] is less than 50. The “% Specific lysis (E:T 20:1)” value in the experiment on TIL586 [2] is listed as less than 10%.

Turning to ISLQRQFLR (listed as Homo sapiens), in the experiment on TIL586 [1], the “Recognition by TIL586 / stimulation” value is “still recognized by TIL586 at comparable concentrations to that of the wild-type peptide”.

Turning to “IVRRNLLDLSK (listed as Homo sapiens) [synthetic peptide from ORF1 (gp75)]”, in the experiment with TIL586 [1], the GM-CSF release is less than 50. The “% Specific lysis (E:T 20:1)” value in the experiment with TIL586 [2] is on record as less than 10%.

Consider “LSKEEKNHFVR (listed as Homo sapiens) [synthetic peptide from ORF1 (gp75)]”, for which the GM-CSF release in the experiment with TIL586 [1] is listed as less than 50. In addition, the “% Specific lysis (E:T 20:1)” value in the experiment on TIL586 [2] was less than 10%.

For LWDVPSWLER (listed as Homo sapiens), in the experiment on TIL586 [1], the GM-CSF release is less than 50. In the experiment on TIL586 [2], the “% Specific lysis (E:T 20:1)” value is on record as less than 10%.

Turning to “MALQRQFLR (listed as Homo sapiens) [modified ORF3P, substitution Ser with Ala at position 2]”, the “Recognition by TIL586 / stimulation” value in the experiment on TIL586 [1] is given as “recognized”.

Regarding “MLLQRQFLR (listed as Homo sapiens) [modified ORF3P, anchor residue substitution]”, the “Recognition by TIL586 / stimulation” value in the experiment with TIL586 [1] is listed as “did not recognize”.

Turning to “MRLQRQFLR (listed as Homo sapiens) [modified ORF3P, anchor residue substitution]”, in the experiment with TIL586 [1], the “Recognition by TIL586 / stimulation” value was “did not recognize”.

With “MSLQRLFLR (listed as Homo sapiens) [modified ORF3P, anchor residue substitution]”, in the experiment on TIL586 [1], the “Recognition by TIL586 / stimulation” value is recorded as “did not recognize”.

Consider “MSLQRQFLE (listed as Homo sapiens) [modified ORF3P, anchor residue substitution]”, for which the “Recognition by TIL586 / stimulation” value in the experiment on TIL586 [1] was “did not recognize”.

As for “MSLQRQFLK (listed as Homo sapiens) [modified ORF3P, anchor residue substitution]”, in the experiment on TIL586 [1], the “Recognition by TIL586 / stimulation” value is on record as “did not recognize”.

With “MSLQRQFLR (listed as Homo sapiens) [ORF3P, antigenic nonamer peptide derived from ORF3 of the gp75 (TRP-1) gene]”, the “Recognition by TIL586 / GM-CSF release, peptide on T2 cells” value with TIL586 [1] (peptide loaded onto T2 (non-HLA-A31) cells) is “not when peptide was loaded onto T2 (non-HLA-A31) cells”. For the same sequence, in the experiment with TIL586 [1], the “Recognition by TIL586 / stimulation” value is “strongly recognized by TIL586; also recorded: significantly increased”. Further, in the experiment with TIL586 [2] (setting [6]), the “Peptide concentration at which lytic activity was still detected” value is given as 1 nM and the “Peptide concentration giving maximal sensitization for lysis” value is 100 nM. In the experiment on TIL586 [2] (T2 (non-A31) cells pulsed with peptide), the “Lysis by TIL586 of T2 cells pulsed with peptide” value is given as “failed to lyse”. For the same sequence, the “Sensitization of peptide-pulsed 586EBV B cells for lysis by TIL586 (in words)” value in the experiment on TIL586 [2] is listed as “lysed”. In the experiment with TIL586 [4], the “Inhibition of lysis of 51Cr-labeled 586mel by cold peptide-pulsed 586EBV B cells” value is listed as “Significant inhibition”. In addition, the “Inhibition of lysis of 51Cr-labeled 624mel by cold peptide-pulsed 586EBV B cells” value in the experiment with TIL1200 was “did not inhibit”. Besides, in experiment [5], the “Recognition of peptide-pulsed 586EBV B cells by T cell clones from TIL586” value was “capable of recognizing; also recorded: recognized by six T cell clones derived from TIL586”. For the same sequence, the “Recognition by TIL586 / GM-CSF release, peptide on 1510EBV cells” value with TIL586 [3] (peptide pulsed onto allogeneic 1510EBV B (A31+) cells) is “observed only when the peptide was pulsed onto autologous 586EBV B cells and 1510EBV B (A31+) cells; also recorded: significantly increased”.

With “MSLQRQFLRT (listed as Homo sapiens) [peptide from ORF3]”, the “Recognition by TIL586 / stimulation” value in the experiment with TIL586 [1] is reported as “did not recognize”.

With “SGHNCGTCR (listed as Homo sapiens) [synthetic peptide from ORF1 (gp75)]”, the GM-CSF release in the experiment on TIL586 [1] is listed as less than 50. The “% Specific lysis (E:T 20:1)” value with TIL586 [2] was less than 10%.

As to “SLQRQFLRT (listed as Homo sapiens) [peptide from ORF3]”, in the experiment on TIL586 [1], the “Recognition by TIL586 / stimulation” value is “did not recognize”.

On to “VWPLRFFNR (listed as Homo sapiens) [synthetic peptide from ORF1 (gp75)]”, for which, in the experiment on TIL586 [1], the GM-CSF release was less than 50. Moreover, the “% Specific lysis (E:T 20:1)” value in the experiment on TIL586 [2] is on record as less than 10%.
